According to PubChem BioAssay AID2060890 (Molecular Pharmacology Branch, DTP, NCI, 2025):

Tested on: LG0703-F948-PDC complex spheroid viability
Test: Anticancer human tumor LG0703-F948-PDC patient-derived lung adenocarcinoma cell line growth inhibition [RAS]
Conditions: for IC50: curve of first compound; for viability, T/C: stronger effect = lower value
In short: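 Multi-cell-type spheroids: tumor cells plus HUVEC endothelial cells and mesenchymal stem cells. RAS-pathway inhibitors were combined with targeted agents, each dosed in half-log steps down from clinical Cmax, or from 10 microM when Cmax was unknown.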

[1] = second compound 0.00316 µM, first compound 0.0316 µM
[2] = second compound 0.00316 µM, first compound 0.1 µM
[3] = second compound 0.00316 µM, first compound 0.316 µM
[4] = second compound 0.00316 µM, first compound 1 µM
[5] = second compound 0.01 µM, first compound 0.0316 µM
[6] = second compound 0.01 µM, first compound 0.1 µM
[7] = second compound 0.01 µM, first compound 0.316 µM
[8] = second compound 0.01 µM, first compound 1 µM
[9] = second compound 0.0316 µM, first compound 0.0316 µM
[10] = second compound 0.0316 µM, first compound 0.1 µM
[11] = second compound 0.0316 µM, first compound 0.316 µM
[12] = second compound 0.0316 µM, first compound 1 µM
[13] = second compound 0.1 µM, first compound 0.0316 µM
[14] = second compound 0.1 µM, first compound 0.1 µM
[15] = second compound 0.1 µM, first compound 0.316 µM
[16] = second compound 0.1 µM, first compound 1 µM
[17] = second compound 0.316 µM, first compound 0.0316 µM
[18] = second compound 0.316 µM, first compound 0.1 µM
[19] = second compound 0.316 µM, first compound 0.316 µM
[20] = second compound 0.316 µM, first compound 1 µM
[21] = second compound 1 µM, first compound 0.0316 µM
[22] = second compound 1 µM, first compound 0.1 µM
[23] = second compound 1 µM, first compound 0.316 µM
[24] = second compound 1 µM, first compound 1 µM
[25] = second compound 0.00316 µM, first compound 3.16 µM
[26] = second compound 0.00316 µM, first compound 10 µM
[27] = second compound 0.01 µM, first compound 3.16 µM
[28] = second compound 0.01 µM, first compound 10 µM
[29] = second compound 0.0316 µM, first compound 3.16 µM
[30] = second compound 0.0316 µM, first compound 10 µM
[31] = second compound 0.1 µM, first compound 3.16 µM
[32] = second compound 0.1 µM, first compound 10 µM
[33] = second compound 0.316 µM, first compound 3.16 µM
[34] = second compound 0.316 µM, first compound 10 µM
[35] = second compound 1 µM, first compound 3.16 µM
[36] = second compound 1 µM, first compound 10 µM
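Further: spheroids exposed to agents for 7 days.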
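Wherever viability, T/C is given: 100% = DMSO vehicle wells.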

CCN1CCN(Cc2ccc(Nc3ncc(F)c(-c4cc(F)c5nc(C)n(C(C)C)c5c4)n3)nc2)CC1 + C=CC(=O)N1CCN(c2nc(OCC3CCCN3C)nc3c(F)c(-c4nc(N)cc(C)c4C(F)(F)F)c(Cl)cc23)C(C)C1
IC50 (second compound 0.00316 µM): > 1000 nM | IC50 (second compound 0.01 µM): > 1000 nM | IC50 (second compound 0.0316 µM): > 1000 nM | IC50 (second compound 0.1 µM): > 1000 nM | IC50 (second compound 0.316 µM): > 1000 nM | IC50 (second compound 1 µM): > 1000 nM | viability, T/C (second compound 0.00316 µM, first compound 0.00316 µM): 106% | viability, T/C (second compound 0.00316 µM, first compound 0.01 µM): 92.5% | viability, T/C [1]: 85.5% | viability, T/C [2]: 74.7% | viability, T/C [3]: 85.3% | viability, T/C [4]: 66.9% | viability, T/C (second compound 0.01 µM, first compound 0.00316 µM): 110% | viability, T/C (second compound 0.01 µM, first compound 0.01 µM): 98.8% | viability, T/C [5]: 89.8% | viability, T/C [6]: 86.5% | viability, T/C [7]: 81% | viability, T/C [8]: 71% | viability, T/C (second compound 0.0316 µM, first compound 0.00316 µM): 108% | viability, T/C (second compound 0.0316 µM, first compound 0.01 µM): 109% | viability, T/C [9]: 91.1% | viability, T/C [10]: 79.7% | viability, T/C [11]: 82.7% | viability, T/C [12]: 61.7% | viability, T/C (second compound 0.1 µM, first compound 0.00316 µM): 106% | viability, T/C (second compound 0.1 µM, first compound 0.01 µM): 98.9% | viability, T/C [13]: 92.5% | viability, T/C [14]: 78% | viability, T/C [15]: 84.3% | viability, T/C [16]: 68.9% | viability, T/C (second compound 0.316 µM, first compound 0.00316 µM): 106% | viability, T/C (second compound 0.316 µM, first compound 0.01 µM): 95.6% | viability, T/C [17]: 89.6% | viability, T/C [18]: 81.5% | viability, T/C [19]: 78.7% | viability, T/C [20]: 64.3% | viability, T/C (second compound 1 µM, first compound 0.00316 µM): 109% | viability, T/C (second compound 1 µM, first compound 0.01 µM): 109% | viability, T/C [21]: 108% | viability, T/C [22]: 81.2% | viability, T/C [23]: 87.4% | viability, T/C [24]: 65.3%

C[C@@H](NC(=O)c1ncnc(N)c1Cl)c1ncc(C(=O)Nc2cc(C(F)(F)F)c(Cl)cn2)s1 + C=CC(=O)N1CCN(c2nc(OCC3CCCN3C)nc3c(F)c(-c4nc(N)cc(C)c4C(F)(F)F)c(Cl)cc23)C(C)C1
IC50 (second compound 0.00316 µM): > 10000 nM | IC50 (second compound 0.01 µM): > 10000 nM | IC50 (second compound 0.0316 µM): > 10000 nM | IC50 (second compound 0.1 µM): > 10000 nM | IC50 (second compound 0.316 µM): > 10000 nM | IC50 (second compound 1 µM): > 10000 nM | viability, T/C [1]: 99.4% | viability, T/C [2]: 100% | viability, T/C [3]: 107% | viability, T/C [4]: 110% | viability, T/C [25]: 104% | viability, T/C [26]: 93% | viability, T/C [5]: 113% | viability, T/C [6]: 103% | viability, T/C [7]: 107% | viability, T/C [8]: 111% | viability, T/C [27]: 109% | viability, T/C [28]: 97.2% | viability, T/C [9]: 103% | viability, T/C [10]: 109% | viability, T/C [11]: 95.8% | viability, T/C [12]: 102% | viability, T/C [29]: 121% | viability, T/C [30]: 95.2% | viability, T/C [13]: 106% | viability, T/C [14]: 109% | viability, T/C [15]: 113% | viability, T/C [16]: 109% | viability, T/C [31]: 118% | viability, T/C [32]: 95.2% | viability, T/C [17]: 118% | viability, T/C [18]: 105% | viability, T/C [19]: 108% | viability, T/C [20]: 114% | viability, T/C [33]: 117% | viability, T/C [34]: 100% | viability, T/C [21]: 115% | viability, T/C [22]: 116% | viability, T/C [23]: 118% | viability, T/C [24]: 132% | viability, T/C [35]: 129% | viability, T/C [36]: 98.3%

NC1c2ccccc2OC12CCN(c1cnc3c(N4CCCc5ncccc54)n[nH]c3n1)CC2 (stereo unspecified) + C=CC(=O)N1CCN(c2nc(OCC3CCCN3C)nc3c(F)c(-c4nc(N)cc(C)c4C(F)(F)F)c(Cl)cc23)C(C)C1
IC50 (second compound 0.00316 µM): 38.6 nM | IC50 (second compound 0.01 µM): 47.8 nM | IC50 (second compound 0.0316 µM): 42.8 nM | IC50 (second compound 0.1 µM): 51.7 nM | IC50 (second compound 0.316 µM): 59.1 nM | IC50 (second compound 1 µM): 41.6 nM | viability, T/C [1]: 54.5% | viability, T/C [2]: 31.4% | viability, T/C [3]: 16% | viability, T/C [4]: 10.9% | viability, T/C [25]: 4.54% | viability, T/C [26]: 2.7% | viability, T/C [5]: 58.3% | viability, T/C [6]: 35% | viability, T/C [7]: 19.9% | viability, T/C [8]: 8.08% | viability, T/C [27]: 5.69% | viability, T/C [28]: 1.86% | viability, T/C [9]: 55.8% | viability, T/C [10]: 34.1% | viability, T/C [11]: 20.5% | viability, T/C [12]: 10.8% | viability, T/C [29]: 4.57% | viability, T/C [30]: 1.97% | viability, T/C [13]: 60.3% | viability, T/C [14]: 35.2% | viability, T/C [15]: 22.8% | viability, T/C [16]: 7.04% | viability, T/C [31]: 4.16% | viability, T/C [32]: 1.66% | viability, T/C [17]: 69.5% | viability, T/C [18]: 32.4% | viability, T/C [19]: 17.3% | viability, T/C [20]: 8.03% | viability, T/C [33]: 4.54% | viability, T/C [34]: 1.99% | viability, T/C [21]: 56.2% | viability, T/C [22]: 30.1% | viability, T/C [23]: 19.4% | viability, T/C [24]: 8.31% | viability, T/C [35]: 6.93% | viability, T/C [36]: 3.04%
